In experiment [1] the test system is cleaved (activated) form of caspase 3 in RS4; 11 tumour lysates. Description: Quantification of the cleaved form of caspase 3 in vivo (MSD ELISA) in RS4; 11 xenograft. Also noted: species or system mice (SCID strain); key: ratio of cleaved caspase 3, treated vs control mice. Particulars: oral, 2 hours' treatment. The protocol:
The ability of the compounds of the invention to activate caspase 3 is evaluated in a xenograft model of RS4; 11 leukaemia cells. 1×10^7 RS4; 11 cells are grafted sub-cutaneously into immunosuppressed mice (SCID strain). 25 to 30 days after the graft, the animals are treated orally with the various compounds. After 2 hours' treatment, the tumour masses are recovered and lysed, and the cleaved (activated) form of caspase 3 is quantified in the tumour lysates. This quantification is carried out using the “Meso Scale Discovery (MSD) ELISA platform” test, which specifically assays the cleaved form of caspase 3. It is expressed in the form of an activation factor corresponding to the ratio between the quantity of cleaved caspase 3 in the treated mice divided by the quantity of cleaved caspase 3 in the control mice.

The subject of experiment [2] is RS4; 11 leukaemia tumour line. Nature of the experiment: In vitro cytotoxicity, Microculture Tetrazolium Assay (MTT). Particulars: Homo sapiens, RS4-11, 48 h, 11 cells, 48 hours exposure. Format: cell-based. The protocol:
The cytotoxicity studies were carried out on the RS4; 11 leukaemia tumour line.
The cells are distributed onto microplates and exposed to the test compounds for 48 hours.
The cell viability is then quantified by a colorimetric assay, the Microculture Tetrazolium Assay (Cancer Res., 1987, 47, 939-942).

In the next experiment the target is Bcl-2 protein (histag-Bcl-2, UniProtKB P10415) (Homo sapiens, UniProt P10415). Description: Inhibition of Bcl-2 by the fluorescence polarisation technique. Format: binding. Particulars: fluorescence polarisation, 2 hours incubation; read-out: IC50 (μM) Bcl-2 FP. The method, then: The fluorescence polarisation tests were carried out on microplates (384 wells). The Bcl-2 protein, labelled (histag-Bcl-2 such that Bcl-2 corresponds to the UniProtKB® primary accession number: P10415), at a final concentration of 5×10^−9M, is mixed with a fluorescent peptide (Fluorescein-REIGAQLRRMADDLNAQY), at a final concentration of 1.00×10^−9M in a buffer solution (Hepes 10 mM, NaCl 150 mM, Tween20 0.05%, pH 7.4), in the presence or absence of increasing concentrations of test compounds. After incubation for 2 hours, the fluorescence polarisation is measured.
In general terms: In fluorescence polarisation assays a small probe gives low polarisation when free and higher when bound to something large.

Bcl-2 protein, sequence (P10415 whole entry): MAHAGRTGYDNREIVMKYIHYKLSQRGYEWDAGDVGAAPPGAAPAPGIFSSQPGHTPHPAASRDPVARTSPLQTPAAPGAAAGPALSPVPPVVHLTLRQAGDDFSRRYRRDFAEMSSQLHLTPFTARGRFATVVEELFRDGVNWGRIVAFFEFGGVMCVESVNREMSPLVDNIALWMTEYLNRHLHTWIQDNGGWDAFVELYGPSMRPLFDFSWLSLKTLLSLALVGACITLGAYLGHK

In general, IC50 refers to the concentration that gives 50% inhibition. On to `Cc1c2cc(n1C)-c1cc(Cl)ccc1C(=O)N1CCc3c(cccc3OCCCc3c(cnn3C)N(c3ccc(O)cc3)C2=O)C1` [Example 6, 11-Chloro-4-(4-hydroxyphenyl)-1,7,8-trimethyl-4,16,17,23,24,25-hexahydro-1H,14H-15,18-methano-6,9-(metheno)dibenzo[b,h]pyrazolo[4,3-p]-[1,6,11,15]oxatriazacycloicosine-5,14(8H)-dione], for which the “Activation factor ± SEM (versus control)” value came to 6.8 ± 4.2 in experiment [1] (12.5 mg/kg, PEG/EtOH/Watcr) and 32.3 ± 9.1 in experiment [1] (25 mg/kg, PEG/EtOH/Water). Further, the IC50 amounted to 26.6 nM in experiment [2] and 0.0052 µM at Bcl-2 protein.
As to `Cc1c2cc(n1C)-c1cc(Cl)ccc1C(=O)N1CCc3c(cccc3OCCc3c(cnn3C)N(c3ccc(O)cc3)C2=O)C1` [Example 16, 11-chloro-4-(4-hydroxyphenyl)-1,7,8-trimethyl-1,4,16,17,23,24-hexahydro-14H-15,18-methano-6,9-(metheno)dibenzo[l,r]pyrazolo[3,4-d][1,6,10,15]oxatriaza-cyclononadecine-5,14(8H)-dione], the “Activation factor ± SEM (versus control)” value was determined as 31.7 ± 2.9 in experiment [1] (25 mg/kg, PEG/EtOH/Water) and 75.1 ± 13.2 in experiment [1] (50 mg/kg, PEG/EtOH/Water). The IC50 in experiment [2] stood at 53.3 nM; at Bcl-2 protein it was 0.00555 µM.
For `Cc1c(N2C(=O)c3cc(n(C)c3C)-c3cc(Cl)ccc3C(=O)N3CCCC(CCOc4cc(O)ccc42)C3)cc(C#N)n1C` (stereo not drawn) [Example 29, 4-[16-Chloro-3-hydroxy-19,20-dimethyl-13,22-dioxo-6,7,8,9,10,11,19,22-octahydro-13H,23H-8,12-methano-21,18-(metheno)dibenzo[b,j][1,4,8,13]oxatriazacyclo-nonadecin-23-yl]-1,5-dimethyl-1H-pyrrole-2-carbonitrile], the “Activation factor ± SEM (versus control)” value in experiment [1] (25 mg/kg, PEG/EtOH/Phosal) was 13.3 ± 6.3; in experiment [1] (50 mg/kg, PEG/EtOH/Phosal), 54.4 ± 9.7. The compound also yielded a concentration for half-maximal inhibition (IC50) in experiment [2] of 70.5 nM.
For `Cc1c2cc(n1C)-c1cc(Cl)ccc1C(=O)N1CCc3c(cccc3OCCCc3c(cc(C#N)n3C)N(c3ccc(O)cc3)C2=O)C1` [Example 18, 11-Chloro-4-(4-hydroxyphenyl)-1,7,8-trimethyl-5,14-dioxo-4,5,8,16,17,23,24,25-octahydro-1H,14H-15,18-methano-6,9-(metheno)dibenzo[b,h]-pyrrolo[3,2-p][1,6,11,15]oxatriazacycloicosine-2-carbonitrile], the “Activation factor ± SEM (versus control)” value in experiment [1] (6.25 mg/kg, PEG/EtOH/Phosal) is 7.8 ± 2.5; in experiment [1] (12.5 mg/kg, PEG/EtOH/Phosal), 31.7 ± 6.0. In addition, the IC50 in experiment [2] came out at 8.36 nM; on Bcl-2 protein it was 0.00365 µM.
